In US20120022107A1, “2-(PIPERIDIN-1-YL)-4-AZOLYL-THIAZOLE-5-CARBOXYLIC ACID DERIVATIVES AGAINST BACTERIAL INFECTIONS” (ASTRAZENECA AB, priority 2008, published 2012):
pIC50: −log10 of the molar value. Converted amounts (≈) assume the structure as drawn.

Columns and labels:
Hinf = Hinf MIC; type: cell-based, Haemophilus influenzae; conditions: Haemophilus influenzae; read-out: Hinf_MIC
Msmeg = Msmeg (Mycolicibacterium smegmatis, UniProt A0QNE0); test: Msmeg IC50; type: biochemical
Sau = Sau MIC; type: cell-based, Staphylococcus aureus; conditions: Staphylococcus aureus; read-out: Sau_MIC
Spn = Spn MIC; type: cell-based, Streptococcus pneumoniae; conditions: Streptococcus pneumoniae; read-out: Spn_MIC
M. tuberculosis = test: MIC testing: Microplate Alamar Blue Assay; type: cell-based, Mycobacterium tuberculosis; conditions: Mycobacterium tuberculosis, lowest concentration preventing color change from blue to pink, read-out: Mtu MIC

Sequence of Msmeg (A0QNE0 whole entry): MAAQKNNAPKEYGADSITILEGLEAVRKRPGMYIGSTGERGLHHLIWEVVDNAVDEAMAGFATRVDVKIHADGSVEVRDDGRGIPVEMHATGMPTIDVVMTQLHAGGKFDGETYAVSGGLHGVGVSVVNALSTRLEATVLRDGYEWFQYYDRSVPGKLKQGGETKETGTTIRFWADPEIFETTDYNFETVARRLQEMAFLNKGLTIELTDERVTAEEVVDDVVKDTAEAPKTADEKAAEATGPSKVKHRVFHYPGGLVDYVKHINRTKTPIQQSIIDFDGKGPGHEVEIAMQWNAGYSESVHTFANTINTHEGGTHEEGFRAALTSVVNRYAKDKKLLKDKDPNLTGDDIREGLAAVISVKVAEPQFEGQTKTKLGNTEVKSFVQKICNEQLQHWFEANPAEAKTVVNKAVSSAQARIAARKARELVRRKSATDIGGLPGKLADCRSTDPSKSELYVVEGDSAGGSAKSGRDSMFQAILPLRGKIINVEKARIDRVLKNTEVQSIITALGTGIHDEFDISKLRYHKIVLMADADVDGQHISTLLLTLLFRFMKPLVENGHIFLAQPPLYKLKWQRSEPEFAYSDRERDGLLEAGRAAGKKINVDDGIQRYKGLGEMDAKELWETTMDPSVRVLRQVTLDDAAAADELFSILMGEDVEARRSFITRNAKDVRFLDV

| SMILES | MIC (Hinf) | pIC50 (Msmeg) | MIC (Sau) | MIC (Spn) | MIC (M. tuberculosis) |
| --- | --- | --- | --- | --- | --- |
| COCCn1ncnc1-c1nc(N2CC[C@@H](NC(=O)c3[nH]c(C)c(Cl)c3Br)[C@@H](OC)C2)sc1C(=O)O [Example 19, 2-((3S,4R)-4-(3-bromo-4-chloro-5-methyl-1H-pyrrole-2-carboxamido)-3-methoxypiperidin-1-yl)-4-(1-(2-methoxyethyl)-1H-1,2,4-triazol-5-yl) thiazole-5-carboxylic acid] | 0.25 µg/mL (≈ 0.415 µM) | > 8.60 | 0.125 µg/mL (≈ 0.207 µM) | 0.125 µg/mL (≈ 0.207 µM) | 0.03 µg/mL (≈ 0.0498 µM) |
| CCn1ncnc1-c1nc(N2CC[C@@H](NC(=O)c3[nH]c(C)c(Br)c3Cl)[C@@H](OC)C2)sc1C(=O)O [Example 14, 2-((3S,4R)-4-(4-bromo-3-chloro-5-methyl-1H-pyrrole-2-carboxamido)-3-methoxypiperidin-1-yl)-4-(1-ethyl-1H-1,2,4-triazol-5-yl) thiazole-5-carboxylic acid] | 0.125 µg/mL (≈ 0.218 µM) | > 8.60 | 0.125 µg/mL (≈ 0.218 µM) | 0.125 µg/mL (≈ 0.218 µM) | 0.03 µg/mL (≈ 0.0524 µM) |
